Molecular target: T1, LmbC (with holo-LmbN-CP) (Streptomyces lincolnensis, UniProt A9Y8R4)
T1 construct: gene SLINC_0236; LmbC: stand-alone NRPS adenylation domain, recombinant, produced as described previously; LmbN-CP: stand-alone N-terminal ~80-residue CP domain, C-terminal His-tag, E. coli BL21(DE3), phosphopantetheinylated by Slp (holo); with LmbN, N-terminal carrier protein domain (LmbN-CP)
T1 sequence (A9Y8R4 1-509): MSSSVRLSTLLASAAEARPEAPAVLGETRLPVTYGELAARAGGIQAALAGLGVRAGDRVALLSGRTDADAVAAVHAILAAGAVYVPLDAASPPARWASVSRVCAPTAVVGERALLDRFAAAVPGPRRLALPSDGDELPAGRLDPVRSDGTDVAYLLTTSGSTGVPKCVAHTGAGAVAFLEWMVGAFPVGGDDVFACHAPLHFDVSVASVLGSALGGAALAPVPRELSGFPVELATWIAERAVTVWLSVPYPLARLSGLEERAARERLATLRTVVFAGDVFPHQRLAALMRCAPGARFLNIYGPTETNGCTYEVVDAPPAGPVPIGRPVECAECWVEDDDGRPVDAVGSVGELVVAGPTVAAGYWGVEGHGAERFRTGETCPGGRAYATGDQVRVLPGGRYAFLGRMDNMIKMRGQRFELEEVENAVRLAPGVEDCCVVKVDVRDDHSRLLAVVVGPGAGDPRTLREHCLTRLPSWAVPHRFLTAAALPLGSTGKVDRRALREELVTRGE
T1 sequence (A9Y8S4 1-80 partner limits assumed): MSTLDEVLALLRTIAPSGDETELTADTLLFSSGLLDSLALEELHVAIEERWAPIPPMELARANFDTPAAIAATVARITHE
Assay: LC-MS (FT-ICR) of aminoacylated carrier protein
Format: biochemical
Details: 3 mM PPL, 1.2 mM ATP, Mg2+, in vitro or in vivo phosphopantetheinylated LmbN-CP, 0.6 uM LmbC, pH 8.8, 28 C, 50 min; PPL transferred to holo-LmbN-CP (covalent)

Structure (SMILES): CCCC1CN[C@H](C(=O)O)C1 (stereo partly drawn) [4-propyl-L-proline]
- LC-MS (FT-ICR) of aminoacylated carrier protein: A-domain LmbC together with LmbN-holo-CP activate the PPL precursor of lincomycin

From paper PMC4351081, “Lincosamide Synthetase—A Unique Condensation System Combining Elements of Nonribosomal Peptide Synthetase and Mycothiol Metabolism” (PLoS ONE, 2015)
